Consider 50 compounds from a melting point compilation (Tetko et al.).

Take `Cn1cc(C(=O)O)c(C(F)F)n1`: the melting point lay in the range of 199 to 201 °C.
For `O=C(O)CCc1cnn(-c2ccccc2)c1`, the melting point was in the range of 80 to 89 °C.
For `CN1CCN(c2ccc(C(F)(F)F)cc2N)CC1`, the melting point lay in the range of 178 to 180 °C.
As for `O=C(O)C=CC(=O)NCc1cccnc1`, the melting point fell in the range of 92 to 94 °C.
The compound `O=C(O)c1cnc(-c2ccccn2)s1` registered a melting point of 199 to 201 °C.
On to `O=C1CC2CCCC(C1)N2Cc1cccs1`, for which the melting point is 88 to 90 °C.
`c1cn(C2CCNCC2)cn1` displayed a melting point of 135 to 137 °C.
The result for `N#Cc1cnc2ccccn12` reads 154 to 156 °C.
`NC(=O)CSc1nnc(S)s1` displayed a melting point of 192 to 194 °C.
Take `COc1ccc(CCN2C(=O)NC(=O)C2=O)cc1`: the melting point lay within 179 to 181 °C.
With `Cc1nnc(CO)s1` the figure was 83 to 85 °C; with `O=C(O)C1CC(=O)N(c2cccc(Br)c2)C1` (stereo not given), 142 to 144 °C; with `O=C(O)C1CCN(C(=O)c2ccccc2)CC1`, 144 to 146 °C.
As for `CCC1CCc2[nH]c3ccc(C)cc3c2C1` (stereo not given), the melting point is 59 to 61 °C.
`Cc1ccc(C2NCC(CCl)O2)cc1` (stereo not given): the melting point fell in the range of 60 to 64 °C.
With `N#Cc1ncn(CC(=O)O)n1`, the melting point fell in the range of 96 to 98 °C.
As to `Cc1ccc(Cl)c2ccc(=O)[nH]c12`, the melting point lay in the range of 254 to 256 °C.
With `C#CCn1cnc(-c2ccccc2)c1N` the figure was 126 to 128 °C.
The result for `Cc1[nH]c2ccc(Cl)cc2c1C(=O)O` reads 193 to 195 °C.
Compound `O=Cc1ccc(OC(F)(F)C(=O)O)cc1` displayed a melting point of 146 to 148 °C.
With `O=C(O)CS(=O)(=O)Cc1cccc(Br)c1`, the melting point was 173 to 175 °C.
In turn, `O=C(c1ccc(F)cc1)c1ncccn1` displayed a melting point of 128 to 130 °C.
With `Cc1cc(C)c([N+](=O)[O-])c(Cl)n1` the figure was 59 to 61 °C; with `Cn1cnc(-c2ccc(N)cc2)n1`, 138 to 140 °C; with `CC1CN(CC(C)C(=O)NN)CC(C)O1` (stereo not given), 70 to 72 °C.
`CC(C)N(C)C(=O)C1CCN(C(=O)CCl)CC1` showed a melting point of 110 to 112 °C.
`Cc1ccsc1C(N)=S` showed a melting point of 117 to 119 °C.
`NC(=O)NCc1ccccc1Cl` gave a melting point of 149 to 151 °C.
`O=S1(=O)C=CCC1` came in with a melting point of 62 to 64 °C.
Compound `COc1ccccc1NC(=O)c1ccccc1NC(=O)CCC(=O)O` showed a melting point of 127 to 129 °C.
The result for `Brc1ccc(CN2CCNCC2)s1` reads 50 to 52 °C; that for `Cc1cnc(C(=O)O)c(C)c1`, 150 to 152 °C.
Compound `Cc1nnc2c(Cl)nccn12` registered a melting point of 212 to 214 °C.
As to `O=C(CCl)Nc1ccccc1OC(F)F`, the melting point was 92 to 94 °C.
`O=Cc1cn(-c2ccccc2)nc1-c1cccnc1` yielded a melting point of 110 to 112 °C.
For the compound `c1ccc(C2NCCn3cccc32)cc1` (stereo not given), the melting point is 72 to 74 °C.
Consider `Cc1c(C(=O)O)cnn1C1CCCC1`, for which the melting point lay within 99 to 101 °C.
`Clc1cc2c(cc1Br)OCCN2` came in with a melting point of 124 to 126 °C.
As to `Nc1nc(Br)cn2ccnc12`, the melting point lay in the range of 215 to 217 °C.
Turning to `O=C(Nc1nc(-c2ccc(Cl)c(Cl)c2)cs1)C(Cl)c1ccccc1` (stereo not given), the melting point is 128 to 130 °C.
On to `O=C(O)CNS(=O)(=O)c1ccc2c(c1)COC2`, for which the melting point is 219 to 221 °C.
The result for `Cc1noc2ncc(N)cc12` reads 179 to 181 °C; that for `O=C1CC(Cc2ccc(F)cc2)C(=O)N1` (stereo not given), 107 to 109 °C; that for `CCCCCCc1nc(S)c2c(=O)n(C)c(=O)n(CCC)c2n1`, 172 to 174 °C.
For `Cc1coc(C=CC(=O)O)n1`, the melting point fell in the range of 103 to 105 °C.
`Nc1nc(-c2ccccc2O)cs1` displayed a melting point of 140 to 142 °C.
Regarding `O=C(O)/C=C/c1ccc(Br)c(Cl)c1`, the melting point is 175 to 186 °C.
The result for `Cc1cc(-c2csc(N)n2)c(C)o1` reads 89 to 91 °C; that for `COC(=O)C(=O)CC(=O)c1ccncc1`, 93 to 95 °C; that for `Cc1noc(C)c1CCC(=O)O`, 109 to 111 °C.
